Results reported in patent US20230101687A1, “SYNTHETIC TISSUE BARRIERS AND USES THEREOF” (Massachusetts Institute of Technology, priority 2019, published 2023).

Columns and labels:
[1] = target: endogenous catalase (CAT) (Sus scrofa, UniProt O62839); conditions: of 35 porcine tissue sites
CAT = CAT (Homo sapiens, UniProt P04040)
Protocol: To confirm the reliability of the porcine-based TPA-positive tissue map described above for potential human trials, fresh resected tissue specimens from humans were tested for compatibility with TPA technology. Similar to the porcine TPA-map study, human tissue specimens were incubated with the TPA solution containing M1, and subsequently CAT-accelerated chromogenic M1 assembly was characterized.

endogenous catalase (CAT), sequence (O62839 2-527 limits assumed): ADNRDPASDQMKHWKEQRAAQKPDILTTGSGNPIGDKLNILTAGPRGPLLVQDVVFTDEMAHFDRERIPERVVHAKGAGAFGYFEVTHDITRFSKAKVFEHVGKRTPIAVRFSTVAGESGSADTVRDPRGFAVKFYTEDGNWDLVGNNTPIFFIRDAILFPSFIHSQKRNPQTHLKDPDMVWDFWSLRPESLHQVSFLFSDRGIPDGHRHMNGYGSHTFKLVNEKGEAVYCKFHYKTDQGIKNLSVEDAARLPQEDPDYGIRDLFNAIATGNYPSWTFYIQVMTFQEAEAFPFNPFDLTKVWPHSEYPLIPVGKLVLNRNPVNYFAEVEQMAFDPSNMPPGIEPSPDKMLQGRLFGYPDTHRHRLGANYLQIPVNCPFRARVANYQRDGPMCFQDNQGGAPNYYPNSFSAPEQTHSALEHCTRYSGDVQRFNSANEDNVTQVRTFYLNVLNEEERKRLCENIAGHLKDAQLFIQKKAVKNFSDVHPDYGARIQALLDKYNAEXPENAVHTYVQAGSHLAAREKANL
CAT, sequence (P04040 2-527 limits assumed): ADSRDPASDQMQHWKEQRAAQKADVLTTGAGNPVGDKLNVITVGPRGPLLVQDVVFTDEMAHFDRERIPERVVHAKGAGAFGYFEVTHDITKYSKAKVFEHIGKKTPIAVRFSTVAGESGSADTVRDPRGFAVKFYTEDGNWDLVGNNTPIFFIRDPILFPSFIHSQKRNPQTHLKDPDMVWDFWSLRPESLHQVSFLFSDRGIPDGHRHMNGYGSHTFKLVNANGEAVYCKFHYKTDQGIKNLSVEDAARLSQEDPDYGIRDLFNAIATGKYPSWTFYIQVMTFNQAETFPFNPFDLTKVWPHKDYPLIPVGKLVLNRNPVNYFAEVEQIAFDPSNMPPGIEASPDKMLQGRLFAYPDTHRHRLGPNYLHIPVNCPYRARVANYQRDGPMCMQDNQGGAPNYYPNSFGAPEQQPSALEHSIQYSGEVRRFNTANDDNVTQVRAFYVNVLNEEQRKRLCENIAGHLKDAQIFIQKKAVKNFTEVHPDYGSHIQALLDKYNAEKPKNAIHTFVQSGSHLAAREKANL

- tissue sites with no obvious PDA signal increase [1]: 9 tissue sites
- tissue sites with significantly increased PDA levels (P<0.05) ([1]; dopamine plus hydrogen peroxide): 26 tissue sites
- time to 95% completion of M1 assembly formation (CAT; all human tissue types tested): 4 to 23 min
SMILES: NCCc1ccc(O)c(O)c1 [Monomer M1, dopamine]
- adhesion of assemblies on human tissues (CAT; cartilage, buccal, tongue, blood): stably adhered M1 assemblies were observed
